From publication PMC11968394, “The effect of deuterated PLK1 inhibitor on its safety and efficacy in vivo” (Frontiers in Oncology, 2025)
Where two headings read alike, the source gives them in different places.

Assay: Caco-2 permeability assay
Format: in vitro ADME
Settings: human; for Papp A→B at 2 h, 5 μM / Papp B→A at 2 h, 5 μM: Caco-2, 5 μM
Procedure: Caco-2 cells were cultured in 10% FBS DMEM for 14-21 days before assays. […] HBSS was added to the opposite chamber. After 2 hours incubation at 37°C, samples were analyzed by LC-MS/MS. Fluorescein leakage was tested by adding 100 μM fluorescein to the upper chamber and measuring fluorescence after 30 minutes.

[1] = Caco-2, Caco-2, B-A, read-out: Recovery B-A%

recovery at 2 h, 5 μM (Caco-2, Caco-2, A-B, read-out: Recovery A-B%) | recovery at 2 h, 5 μM [1] | Papp A→B at 2 h, 5 μM | Papp B→A at 2 h, 5 μM | Structure (SMILES)
78.5% | 101% | 0.9 ×10⁻⁶ cm/s | 26.1 ×10⁻⁶ cm/s | C[C@H]1O[C@@H](O[C@H]2[C@@H](O)C[C@H](O[C@H]3[C@@H](O)C[C@H](O[C@H]4CC[C@@]5(C)[C@H](CC[C@@H]6[C@@H]5C[C@@H](O)[C@]5(C)[C@@H](C7=CC(=O)OC7)CC[C@]65O)C4)O[C@@H]3C)O[C@@H]2C)C[C@H](O)[C@@H]1O [Digoxin]
– | 84.9% | 22.3 ×10⁻⁶ cm/s | 14.7 ×10⁻⁶ cm/s | CC(C)NCC(O)COc1cccc2ccccc12 (stereo not shown) [Propraolol, Propranolol]
